IC50 and CC50 data for 28 compounds are collected here from patent US20230312491A1, “N-SUBSTITUTED 4-(5-PHENYL-1,3,4-OXADIAZOL-2-YL)ANILINE FOR THE TREATMENT AND PROPHYLAXIS OF HEPATITIS B VIRUS INFECTION” (priority 2020, published 2023).

What all share (format): cell-based
One data set has as its system HBeAg. The experiment in a line: PHH natural infection assay, HBeAg (alphalisa). Particulars: Hepatitis B virus, Hepatocyte, 72 h, read-out: HBeAg IC50. On the procedure: (§1) Detailed procedures regarding primary human hepatocyte (PHH) HBV natural infection assay are described as below. One tube of frozen PHH (10 million cells) is thawed in 37° C. water bath and then transferred to 20 mL of PHH thawing medium (Sigma, InVitroGRO HT Medium, Cat. S03319) with gently mixing. The cells were then centrifuged at […] for 5 min, the supernatant was discarded and the tube was refilled with 25 mL of PHH plating medium (Sigma, InVitroGRO CP Medium, Cat. S03317). The tube was shaken very gently to re-suspend all cells, and then 50 µl of cells were transferred to each well 384-well collagen I coated plate with appropriate liquid handling equipment, e.g. Integra VIAFLO384 or Agilent Bravo. The cells were then cultured for 24 hours in a cell incubator. For HBV infection, after PHH attachment on the culture plate, the plating medium was removed and replenished with PHH culture medium containing HBV virus. The PHH culture medium was prepared with Dulbecco’s Modified Eagle Medium (DMEM)/F12 (1: 1 in volume ratio) containing 10% fetal bovine serum (Gibco, Cat.10099141), 5 ng/mL human epidermal growth factor (Gibco, Cat.PHG0311L), 20 ng/mL dexamethasone (Sigma, Cat.D4902-100 mg), 250 ng/mL human recombinant insulin (Gibco, Cat.41400045) and 100 U/mL penicillin. HBV virus at 200 genome equivalent (GE) per cell with 4% PEG8000 (Sigma, Cat.P1458) containing culture medium were added to the PHH culture medium for infection. The cells were then cultured for 24 hours in cell incubator. Then the cell culture supernatant was removed. The HBV-infected PHH were cultured with sandwich culture method with PHH culture medium containing 1% DMSO and 0.25 mg/mL matrix gel for 72 hours. The supernatant was then refreshed with PHH culture medium containing different concentrations of testing compounds for two times with 72-hour interval. At the end of treatment, the supernatant was collected for viral markers measurements, including HBsAg, HBeAg, HBV DNA and cytotoxicity. HBsAg and HBeAg were detected using alphalisa method using their specific antibodies. For HBV DNA detection, HBV DNA Quantitative Fluorescence Diagnostic Kit (Sansure Biotech Inc.) was used following the manufacture’s protocol. Cytotoxicity was determined using Cell Counting Kit-8 (CCK8, Dojindo Molecular Technologies, Inc.).
(§2) The compounds of the present invention were tested for their capacity to inhibit HBsAg and HBeAg as described herein.

Data set [1] is described as follows: PHH natural infection assay, cytotoxicity (Cell Counting Kit-8). Particulars: HBV-infected primary human hepatocytes, CCK8. On the procedure: as §1
The test system of another data set is HBsAg. Put plainly: PHH natural infection assay, HBsAg (alphalisa). The conditions noted are these: Hepatitis B virus, Hepatocyte, 72 h, read-out: HBsAg IC50. The procedure:
as §1, §2

For orientation: IC50 means the concentration needed to halve the response being measured. One may read the CC50 as the concentration at which the toxic effect on the cells reaches its halfway point. A low value points to harm at low concentration. For `Nc1ccc(-c2nnc(-c3ccccc3)o2)cc1F` [Example 32, 2-Fluoro-4-(5-phenyl-1,3,4-oxadiazol-2-yl)aniline], the figures for the IC50 in the data set with HBeAg and in the data set on HBsAg were 2.81 µM and 2.39 µM, respectively. In addition, in data set [1], the CC50 at 144 h was greater than 100 µM.
The matching figures for `COCCC(=O)Nc1ccc(-c2nnc(-c3ccccc3)o2)cc1` [Example 5, 3-methoxy-N-[4-(5-phenyl-1,3,4-oxadiazol-2-yl)phenyl]propanamide]: 0.69 µM, 0.59 µM and greater than 100 µM.
The corresponding values for `O=C(Nc1ccc(-c2nnc(-c3ccccc3)o2)cc1)c1ccncc1` [Example 19, N-[4-(5-phenyl-1,3,4-oxadiazol-2-yl)phenyl]pyridine-4-carboxamide] are 2.8 µM, 4.8 µM and greater than 100 µM.
Regarding `Cc1cc(F)cc(C(=O)Nc2ccc(-c3nnc(-c4ccccc4)o3)cc2)c1` [Example 10, 3-fluoro-5-methyl-N-[4-(5-phenyl-1,3,4-oxadiazol-2-yl)phenyl]benzamide], the IC50 is 2.17 µM in the data set on HBeAg and 1.61 µM in the data set on HBsAg. In data set [1], this compound had a CC50 at 144 h greater than 100 µM.
The corresponding values for `O=C(Nc1ccc(-c2nnc(-c3ccccc3)o2)cc1)c1nccs1` [Example 27, N-[4-(5-phenyl-1,3,4-oxadiazol-2-yl)phenyl]thiazole-2-carboxamide] are 1.71 µM, 1.52 µM and greater than 100 µM.
The corresponding values for `CC(C)(C)CC(=O)Nc1ccc(-c2nnc(-c3ccccc3)o2)cc1` [Example 29, 3,3-dimethyl-N-[4-(5-phenyl-1,3,4-oxadiazol-2-yl)phenyl]butanamide] are 9.57 µM, 5.1 µM and greater than 100 µM.
The matching figures for `COc1cc(-c2nnc(-c3ccccc3)o2)ccc1N` [Example 31, 2-Methoxy-4-(5-phenyl-1,3,4-oxadiazol-2-yl)aniline]: 4.17 µM, 1.49 µM and greater than 100 µM.
For `O=C(Nc1ccc(-c2nnc(-c3ccccc3)o2)cc1)c1cccc(OC(F)(F)F)c1` [Example 16, N-[4-(5-phenyl-1,3,4-oxadiazol-2-yl)phenyl]-3-(trifluoromethoxy)benzamide], the IC50 with HBeAg was 2.91 µM; in the data set with HBsAg, 1.35 µM. The CC50 at 144 h in data set [1] was greater than 100 µM.
The matching figures for `CCCC(=O)Nc1ccc(-c2nnc(-c3ccccc3)o2)cc1` [Example 2, N-[4-(5-phenyl-1,3,4-oxadiazol-2-yl)phenyl]butanamide]: 43.1 µM, 3 µM and greater than 100 µM.
In the case of `O=C(Nc1ccc(-c2nnc(-c3ccccc3)o2)cc1)c1cccnn1` [Example 25, N-[4-(5-phenyl-1,3,4-oxadiazol-2-yl)phenyl]pyridazine-3-carboxamide], the results for the IC50 with HBeAg and with HBsAg were 1.27 µM and 1.09 µM, respectively. The compound also displayed a CC50 at 144 h in data set [1] greater than 100 µM.
The matching figures for `Cc1cc(Cl)cc(C(=O)Nc2ccc(-c3nnc(-c4ccccc4)o3)cc2)c1` [Example 11, 3-chloro-5-methyl-N-[4-(5-phenyl-1,3,4-oxadiazol-2-yl)phenyl]benzamide]: 12.7 µM, 6.4 µM and greater than 100 µM.
Take `CCC(=O)Nc1ccc(-c2nnc(-c3ccccc3)o2)cc1` [Example 1, N-[4-(5-phenyl-1,3,4-oxadiazol-2-yl)phenyl]propanamide]: the IC50 was found to be 4.85 µM with HBeAg and 1.19 µM in the data set with HBsAg. This compound showed a CC50 at 144 h in data set [1] greater than 100 µM.
The matching figures for `O=C(Nc1ccc(-c2nnc(-c3ccccc3)o2)cc1)c1ccccc1Cl` [Example 9, 2-chloro-N-[4-(5-phenyl-1,3,4-oxadiazol-2-yl)phenyl]benzamide]: 1.69 µM, 8.23 µM and greater than 100 µM.
As for `O=C(Nc1ccc(-c2nnc(-c3ccccc3)o2)cc1)c1ccnc(Cl)c1` [Example 20, 2-chloro-N-[4-(5-phenyl-1,3,4-oxadiazol-2-yl)phenyl]pyridine-4-carboxamide], the IC50 is 2.56 µM with HBeAg and 1.39 µM in the data set with HBsAg. For the same compound, in data set [1], the CC50 at 144 h was greater than 100 µM.
The matching figures for `CN(C)c1ccc(-c2nnc(-c3ccccc3)o2)cc1` [Example 33, N,N-dimethyl-4-(5-phenyl-1,3,4-oxadiazol-2-yl)aniline]: 91.7 µM, 7.69 µM and greater than 100 µM.
The corresponding values for `O=C(Nc1ccc(-c2nnc(-c3ccccc3)o2)cc1)c1cccc(Cl)n1` [Example 22, 6-chloro-N-[4-(5-phenyl-1,3,4-oxadiazol-2-yl)phenyl]pyridine-2-carboxamide] are 1.59 µM, 0.96 µM and greater than 100 µM.
On to `O=C(Nc1ccc(-c2nnc(-c3ccccc3)o2)cc1)c1ccnnc1` [Example 24, N-[4-(5-phenyl-1,3,4-oxadiazol-2-yl)phenyl]pyridazine-4-carboxamide], for which the figures for the IC50 with HBeAg and in the data set on HBsAg were 1.6 µM and 1.2 µM, respectively. In addition, in data set [1], the CC50 at 144 h was greater than 100 µM.
The matching figures for `O=C(Nc1ccc(-c2nnc(-c3ccccc3)o2)cc1)c1ccccc1OC(F)(F)F` [Example 14, N-[4-(5-phenyl-1,3,4-oxadiazol-2-yl)phenyl]-2-(trifluoromethoxy)benzamide]: 2.88 µM, 3.59 µM and greater than 100 µM.
The matching figures for `Cc1cc(-c2nnc(-c3ccccc3)o2)ccc1N` [Example 30, 2-methyl-4-(5-phenyl-1,3,4-oxadiazol-2-yl)aniline]: 3.21 µM, 1.43 µM and greater than 100 µM.
For the compound `CC(C)(C)C(=O)Nc1ccc(-c2nnc(-c3ccccc3)o2)cc1` [Example 28, 2,2-dimethyl-N-[4-(5-phenyl-1,3,4-oxadiazol-2-yl)phenyl]propanamide], the IC50 in the data set on HBeAg was 4.23 µM; with HBsAg, 7.65 µM. In addition, in data set [1], the CC50 at 144 h was greater than 100 µM.
Turning to `O=C(Nc1ccc(-c2nnc(-c3ccccc3)o2)cc1)c1ncco1` [Example 26, N-[4-(5-phenyl-1,3,4-oxadiazol-2-yl)phenyl]oxazole-2-carboxamide], the figures for the IC50 with HBeAg and in the data set on HBsAg were 1.42 µM and 0.91 µM, respectively. In data set [1], the CC50 at 144 h was greater than 100 µM.
The corresponding values for `O=C(Nc1ccc(-c2nnc(-c3ccccc3)o2)cc1)c1ccccc1F` [Example 8, 2-fluoro-N-[4-(5-phenyl-1,3,4-oxadiazol-2-yl)phenyl]benzamide] are 5.06 µM, 4.17 µM and greater than 100 µM.
The matching figures for `O=C(Nc1ccc(-c2nnc(-c3ccccc3)o2)cc1)c1ccccc1OC(F)F` [Example 15, 2-(difluoromethoxy)-N-[4-(5-phenyl-1,3,4-oxadiazol-2-yl)phenyl]benzamide]: 1.94 µM, 1.94 µM and greater than 100 µM.
The matching figures for `O=C(Nc1ccc(-c2nnc(-c3ccccc3)o2)cc1)c1ccc(Cl)cc1` [Example 13, 4-chloro-N-[4-(5-phenyl-1,3,4-oxadiazol-2-yl)phenyl]benzamide]: 4.43 µM, 5.62 µM and greater than 100 µM.
Take `CCCCC(=O)Nc1ccc(-c2nnc(-c3ccccc3)o2)cc1` [Example 3, N-[4-(5-phenyl-1,3,4-oxadiazol-2-yl)phenyl]pentanamide]: the IC50 is 3.01 µM with HBeAg and 2.39 µM with HBsAg. For the same compound, in data set [1], the CC50 at 144 h was greater than 100 µM.
The corresponding values for `N#Cc1ccc(C(=O)Nc2ccc(-c3nnc(-c4ccccc4)o3)cc2)cc1` [Example 18, 4-cyano-N-[4-(5-phenyl-1,3,4-oxadiazol-2-yl)phenyl]benzamide] are 2.26 µM, 2.54 µM and greater than 100 µM.
The corresponding values for `COc1cc(C(=O)Nc2ccc(-c3nnc(-c4ccccc4)o3)cc2)ccn1` [Example 21, 2-methoxy-N-[4-(5-phenyl-1,3,4-oxadiazol-2-yl)phenyl]pyridine-4-carboxamide] are 1.91 µM, 2 µM and greater than 100 µM.
In the case of `CC(C)CC(=O)Nc1ccc(-c2nnc(-c3ccccc3)o2)cc1` [Example 4, 3-methyl-N-[4-(5-phenyl-1,3,4-oxadiazol-2-yl)phenyl]butanamide], the IC50 in the data set with HBeAg amounted to 3.43 µM; in the data set with HBsAg it was 2.8 µM. Further, the CC50 at 144 h in data set [1] is greater than 100 µM.
